Source: ChEMBL document CHEMBL4052642, “4-Methyl-6,7-dihydro-4H-triazolo[4,5-c]pyridine-Based P2X7 Receptor Antagonists: Optimization of Pharmacokinetic Properties Leading to the Identification of a Clinical Candidate” (J Med Chem, 2017)
Values after ≈ are worked out from the molar mass of the structure shown.

What was measured:
Rattus norvegicus [1] = assay: Toxicity in rat assessed as autoinduction at 50 to 150 mg/kg administered via oral gavage on day 1 and day 4; type: organism-based; conditions: in vivo
[2] = Protein binding in rat plasma at 1 uM after 6 hrs by equilibrium dialysis method; type: ADME, cell-free; conditions: read-out: PPB (converted)
Cytochrome P450 2C19 [3] = target: T1, Cytochrome P450 2C19 (Homo sapiens, UniProt P33261); assay: Inhibition of CYP2C19 in human liver microsomes using S-mephenytoin as substrate after 15 mins by LC-MS/MS analysis; type: ADME
Cytochrome P450 2C9 [4] = target: T2, Cytochrome P450 2C9 (Homo sapiens, UniProt P11712); assay: Inhibition of CYP2C9 in human liver microsomes using diclofenac as substrate after 15 mins by LC-MS/MS analysis; type: ADME
Cytochrome P450 2D6 = Cytochrome P450 2D6 (Homo sapiens, UniProt P10635); assay: Inhibition of CYP2D6 in human liver microsomes using dextromethorphan as substrate after 15 mins by LC-MS/MS analysis; type: ADME
[5] = Volume of distribution at steady state in Sprague-Dawley rat at 1 mg/kg, iv or 5 mg/kg, po by LC-MS/MS analysis; type: ADME, organism-based; conditions: in vivo, read-out: Vdss
Rattus norvegicus [6] = assay: Toxicity in rat assessed as hepatic lipidosis at 50 to 350 mg/kg administered via oral gavage on day 1 and day 4 measured on day 5 by hematoxylin/eosin staining-based microscopic method; type: organism-based; conditions: in vivo
Cytochrome P450 1A2 = target: T3, Cytochrome P450 1A2 (Homo sapiens, UniProt P05177); assay: Inhibition of CYP1A2 in human liver microsomes using phenacetin as substrate after 15 mins by LC-MS/MS analysis; type: ADME
T3 sequence (P05177 whole entry): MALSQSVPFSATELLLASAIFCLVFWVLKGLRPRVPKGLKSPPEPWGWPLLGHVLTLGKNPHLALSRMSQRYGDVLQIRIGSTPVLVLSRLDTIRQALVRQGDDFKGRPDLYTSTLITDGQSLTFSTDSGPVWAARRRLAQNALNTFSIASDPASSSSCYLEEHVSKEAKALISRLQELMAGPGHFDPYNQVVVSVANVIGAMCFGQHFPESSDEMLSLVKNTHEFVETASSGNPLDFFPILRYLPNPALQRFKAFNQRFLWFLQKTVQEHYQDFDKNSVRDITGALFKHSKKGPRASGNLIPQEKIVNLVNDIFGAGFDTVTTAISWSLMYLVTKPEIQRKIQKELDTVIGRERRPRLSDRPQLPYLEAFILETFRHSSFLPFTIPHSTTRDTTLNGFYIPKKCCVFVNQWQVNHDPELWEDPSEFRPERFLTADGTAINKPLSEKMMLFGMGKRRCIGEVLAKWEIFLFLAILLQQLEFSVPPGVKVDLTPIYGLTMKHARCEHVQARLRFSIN

Rattus norvegicus [7] = assay: Ex vivo receptor occupancy at P2X7 in po dosed Sprague-Dawley rat brain assessed as plasma concentration required to achieve EC50 after 60 mins by autoradiography; type: functional, organism-based
[8] = Oral bioavailability in Balb/c mouse at 5 mg/kg by LC-MS/MS analysis; type: ADME, organism-based; conditions: in vivo
Cytochrome P450 3A4 = Cytochrome P450 3A4 (Homo sapiens, UniProt P08684); assay: Inhibition of CYP3A4 in human liver microsomes using midazolam as substrate after 15 mins by LC-MS/MS analysis; type: ADME
[9] = Clearance in Sprague-Dawley rat at 1 mg/kg, iv or 5 mg/kg, po by LC-MS/MS analysis; type: ADME, organism-based; conditions: in vivo
Rattus norvegicus [10] = assay: Toxicity in rat assessed as ataxia at 500 to 1000 mg/kg administered single dose via oral gavage; type: organism-based; conditions: in vivo
[11] = Solubility of compound in phosphate buffer at pH 2 after 3 days; type: physicochemical
[12] = Half life in beagle dog at 0.5 mg/kg, iv by LC-MS/MS analysis; type: ADME, organism-based, Canis lupus familiaris; conditions: in vivo
[13] = Ratio of drug level in po dosed Sprague-Dawley rat brain to plasma; type: ADME, organism-based; conditions: read-out: BPR
[14] = Volume of distribution at steady state in cynomolgus monkey at 1 mg/kg, iv or 5 mg/kg, po by LC-MS/MS analysis; type: ADME, organism-based, Macaca fascicularis; conditions: in vivo, read-out: Vdss
Rattus norvegicus [15] = assay: Drug metabolism in Sprague-Dawley rat assessed as formation of (R)-(2-chloro-3-(trifluoromethyl)phenyl)(4-methyl-1,4,6,7-tetrahydro-5H-[1,2,3]triazolo[4,5-c]pyridin-5-yl)methanone at 1 mg/kg, iv or 5 mg/kg, po by LC-MS/MS analysis; type: ADME, organism-based; conditions: in vivo
[16] = Clearance in cynomolgus monkey at 1 mg/kg, iv or 5 mg/kg, po by LC-MS/MS analysis; type: ADME, organism-based, Macaca fascicularis; conditions: in vivo
[17] = Volume of distribution at steady state in Balb/c mouse at 1 mg/kg, iv or 5 mg/kg, po by LC-MS/MS analysis; type: ADME, organism-based; conditions: in vivo, read-out: Vdss
Rattus norvegicus [18] = assay: Toxicity in rat assessed as decrease in activity at 250 to 1000 mg/kg administered single dose via oral gavage; type: organism-based; conditions: in vivo
Plasma = assay: Plasma concentration in rat at 250 mg/kg administered single dose via oral gavage; type: ADME, organism-based; conditions: in vivo
Cytochrome P450 2C8 = target: T4, Cytochrome P450 2C8 (Homo sapiens, UniProt P10632); assay: Inhibition of CYP2C8 in human liver microsomes using paclitaxel as substrate after 15 mins by LC-MS/MS analysis; type: ADME
T4 sequence (P10632 whole entry): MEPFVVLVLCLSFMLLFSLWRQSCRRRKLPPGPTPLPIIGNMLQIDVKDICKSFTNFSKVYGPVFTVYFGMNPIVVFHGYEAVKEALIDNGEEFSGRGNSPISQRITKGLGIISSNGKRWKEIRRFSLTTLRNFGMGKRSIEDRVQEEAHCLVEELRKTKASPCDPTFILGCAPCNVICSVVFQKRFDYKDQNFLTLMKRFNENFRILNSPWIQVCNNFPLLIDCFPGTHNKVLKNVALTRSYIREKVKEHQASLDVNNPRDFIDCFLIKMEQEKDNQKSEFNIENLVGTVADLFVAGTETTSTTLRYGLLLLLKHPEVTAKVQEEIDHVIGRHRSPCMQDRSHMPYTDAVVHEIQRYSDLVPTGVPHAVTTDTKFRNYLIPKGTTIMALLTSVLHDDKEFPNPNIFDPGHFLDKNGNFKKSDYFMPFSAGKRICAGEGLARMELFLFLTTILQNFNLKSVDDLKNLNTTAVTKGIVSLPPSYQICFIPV

Rattus norvegicus [19] = assay: Ex vivo receptor occupancy at P2X7 in po dosed Sprague-Dawley rat brain after 60 mins by autoradiography; type: functional
[20] = Oral bioavailability in Sprague-Dawley rat at 5 mg/kg by LC-MS/MS analysis; type: ADME, organism-based; conditions: in vivo
Cytochrome P450 2C19 [21] = target: T1, Cytochrome P450 2C19; assay: Drug metabolism assessed as recombinant human CYP2C19-mediated metabolite formation; type: ADME; conditions: recombinant enzyme
[22] = Volume of distribution at steady state in beagle dog at 0.5 mg/kg, iv or 2.5 mg/kg, po by LC-MS/MS analysis; type: ADME, organism-based, Canis lupus familiaris; conditions: in vivo, read-out: Vdss
[23] = Protein binding in mouse plasma at 1 uM after 6 hrs by equilibrium dialysis method; type: ADME, cell-free; conditions: read-out: PPB (converted)
[24] = Half life in Sprague-Dawley rat at 1 mg/kg, iv by LC-MS/MS analysis; type: ADME, organism-based; conditions: in vivo
[25] = target: Voltage-gated inwardly rectifying potassium channel KCNH2 (Homo sapiens, UniProt Q12809); assay: Inhibition of [3H]-dofetilide binding to human ERG expressed in HEK293 cells; type: cell-based
[26] = Protein binding in human plasma at 1 uM after 6 hrs by equilibrium dialysis method; type: ADME, cell-free; conditions: read-out: PPB (converted)
[27] = Clearance in Balb/c mouse at 1 mg/kg, iv or 5 mg/kg, po by LC-MS/MS analysis; type: ADME, organism-based; conditions: in vivo
[28] = Oral bioavailability in beagle dog at 2.5 mg/kg by LC-MS/MS analysis; type: ADME, organism-based, Canis lupus familiaris; conditions: beagle, in vivo
[29] = Half life in cynomolgus monkey at 1 mg/kg, iv by LC-MS/MS analysis; type: ADME, organism-based, Macaca fascicularis; conditions: in vivo
[30] = Half life in Balb/c mouse at 1 mg/kg, iv by LC-MS/MS analysis; type: ADME, organism-based; conditions: in vivo
[31] = Solubility of compound in phosphate buffer at pH 7 after 3 days; type: physicochemical
[32] = Drug excretion in Sprague-Dawley rat at 1 mg/kg, iv or 5 mg/kg, po by LC-MS/MS analysis; type: ADME, organism-based; conditions: in vivo, read-out: Drug excretion
[33] = Oral bioavailability in cynomolgus monkey at 5 mg/kg by LC-MS/MS analysis; type: ADME, organism-based, Macaca fascicularis; conditions: in vivo
Rattus norvegicus [34] = assay: Toxicity in rat assessed as increase in liver weight at 50 to 150 mg/kg administered via oral gavage on day 1 and day 4; type: organism-based; conditions: in vivo
[35] = Clearance in beagle dog at 0.5 mg/kg, iv or 2.5 mg/kg, po by LC-MS/MS analysis; type: ADME, organism-based, Canis lupus familiaris; conditions: in vivo
Cytochrome P450 2C9 [36] = target: T2, Cytochrome P450 2C9; assay: Drug metabolism assessed as recombinant human CYP2C9-mediated metabolite formation; type: ADME; conditions: recombinant enzyme

T2 sequence (P11712 whole entry): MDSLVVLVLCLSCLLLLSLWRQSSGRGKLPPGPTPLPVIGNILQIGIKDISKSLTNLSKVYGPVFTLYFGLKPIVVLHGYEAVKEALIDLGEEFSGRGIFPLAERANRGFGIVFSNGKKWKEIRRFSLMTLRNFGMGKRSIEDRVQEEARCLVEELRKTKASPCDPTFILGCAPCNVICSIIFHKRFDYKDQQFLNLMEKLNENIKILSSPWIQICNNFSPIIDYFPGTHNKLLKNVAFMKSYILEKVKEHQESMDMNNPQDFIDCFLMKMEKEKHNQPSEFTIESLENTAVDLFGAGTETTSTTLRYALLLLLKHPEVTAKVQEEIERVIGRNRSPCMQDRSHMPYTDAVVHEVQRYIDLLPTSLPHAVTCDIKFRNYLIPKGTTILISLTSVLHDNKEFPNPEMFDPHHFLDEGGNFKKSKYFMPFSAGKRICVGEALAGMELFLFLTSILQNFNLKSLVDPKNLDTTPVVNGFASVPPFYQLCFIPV
T1 sequence (P33261 whole entry): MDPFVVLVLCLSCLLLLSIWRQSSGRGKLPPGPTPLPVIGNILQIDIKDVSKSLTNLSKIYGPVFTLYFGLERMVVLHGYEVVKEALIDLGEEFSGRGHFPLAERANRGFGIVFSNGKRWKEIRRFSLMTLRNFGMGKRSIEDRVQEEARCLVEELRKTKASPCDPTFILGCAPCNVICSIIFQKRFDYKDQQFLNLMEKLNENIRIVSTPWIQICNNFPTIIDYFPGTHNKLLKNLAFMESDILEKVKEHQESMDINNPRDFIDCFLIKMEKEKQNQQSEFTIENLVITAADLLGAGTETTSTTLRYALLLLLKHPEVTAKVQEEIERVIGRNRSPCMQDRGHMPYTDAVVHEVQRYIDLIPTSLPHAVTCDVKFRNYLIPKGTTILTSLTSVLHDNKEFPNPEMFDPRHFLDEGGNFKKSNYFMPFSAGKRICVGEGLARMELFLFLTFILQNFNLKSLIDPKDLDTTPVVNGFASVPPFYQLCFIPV
Sequence of Cytochrome P450 2D6 (P10635 whole entry): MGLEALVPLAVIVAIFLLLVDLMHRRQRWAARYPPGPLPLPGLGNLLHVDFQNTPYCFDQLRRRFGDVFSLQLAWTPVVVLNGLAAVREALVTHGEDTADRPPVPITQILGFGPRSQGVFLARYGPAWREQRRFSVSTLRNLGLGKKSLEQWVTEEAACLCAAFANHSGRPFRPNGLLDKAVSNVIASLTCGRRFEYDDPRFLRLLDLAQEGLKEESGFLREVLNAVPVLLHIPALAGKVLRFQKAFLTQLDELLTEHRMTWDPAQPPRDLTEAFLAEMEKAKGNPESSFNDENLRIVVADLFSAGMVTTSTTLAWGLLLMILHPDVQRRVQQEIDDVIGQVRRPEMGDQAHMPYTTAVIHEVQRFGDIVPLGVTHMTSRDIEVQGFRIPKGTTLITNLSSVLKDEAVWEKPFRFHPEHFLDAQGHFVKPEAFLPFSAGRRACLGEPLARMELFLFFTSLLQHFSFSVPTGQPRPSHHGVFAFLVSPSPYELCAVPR
Sequence of Cytochrome P450 3A4 (P08684 whole entry): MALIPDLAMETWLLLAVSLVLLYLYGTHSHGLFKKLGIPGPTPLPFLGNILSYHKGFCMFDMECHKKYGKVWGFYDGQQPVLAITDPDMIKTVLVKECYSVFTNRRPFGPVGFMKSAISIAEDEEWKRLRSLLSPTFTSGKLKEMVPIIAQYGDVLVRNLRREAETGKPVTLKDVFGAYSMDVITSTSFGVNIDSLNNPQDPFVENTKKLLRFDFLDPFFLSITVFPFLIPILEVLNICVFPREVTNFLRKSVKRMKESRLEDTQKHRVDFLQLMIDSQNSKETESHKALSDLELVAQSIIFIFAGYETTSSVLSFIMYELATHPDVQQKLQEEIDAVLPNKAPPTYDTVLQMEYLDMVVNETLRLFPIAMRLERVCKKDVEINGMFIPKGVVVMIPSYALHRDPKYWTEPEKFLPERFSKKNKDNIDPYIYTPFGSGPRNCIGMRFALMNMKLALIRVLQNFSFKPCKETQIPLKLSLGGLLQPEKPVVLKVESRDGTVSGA
Sequence of Voltage-gated inwardly rectifying potassium channel KCNH2 (Q12809 whole entry): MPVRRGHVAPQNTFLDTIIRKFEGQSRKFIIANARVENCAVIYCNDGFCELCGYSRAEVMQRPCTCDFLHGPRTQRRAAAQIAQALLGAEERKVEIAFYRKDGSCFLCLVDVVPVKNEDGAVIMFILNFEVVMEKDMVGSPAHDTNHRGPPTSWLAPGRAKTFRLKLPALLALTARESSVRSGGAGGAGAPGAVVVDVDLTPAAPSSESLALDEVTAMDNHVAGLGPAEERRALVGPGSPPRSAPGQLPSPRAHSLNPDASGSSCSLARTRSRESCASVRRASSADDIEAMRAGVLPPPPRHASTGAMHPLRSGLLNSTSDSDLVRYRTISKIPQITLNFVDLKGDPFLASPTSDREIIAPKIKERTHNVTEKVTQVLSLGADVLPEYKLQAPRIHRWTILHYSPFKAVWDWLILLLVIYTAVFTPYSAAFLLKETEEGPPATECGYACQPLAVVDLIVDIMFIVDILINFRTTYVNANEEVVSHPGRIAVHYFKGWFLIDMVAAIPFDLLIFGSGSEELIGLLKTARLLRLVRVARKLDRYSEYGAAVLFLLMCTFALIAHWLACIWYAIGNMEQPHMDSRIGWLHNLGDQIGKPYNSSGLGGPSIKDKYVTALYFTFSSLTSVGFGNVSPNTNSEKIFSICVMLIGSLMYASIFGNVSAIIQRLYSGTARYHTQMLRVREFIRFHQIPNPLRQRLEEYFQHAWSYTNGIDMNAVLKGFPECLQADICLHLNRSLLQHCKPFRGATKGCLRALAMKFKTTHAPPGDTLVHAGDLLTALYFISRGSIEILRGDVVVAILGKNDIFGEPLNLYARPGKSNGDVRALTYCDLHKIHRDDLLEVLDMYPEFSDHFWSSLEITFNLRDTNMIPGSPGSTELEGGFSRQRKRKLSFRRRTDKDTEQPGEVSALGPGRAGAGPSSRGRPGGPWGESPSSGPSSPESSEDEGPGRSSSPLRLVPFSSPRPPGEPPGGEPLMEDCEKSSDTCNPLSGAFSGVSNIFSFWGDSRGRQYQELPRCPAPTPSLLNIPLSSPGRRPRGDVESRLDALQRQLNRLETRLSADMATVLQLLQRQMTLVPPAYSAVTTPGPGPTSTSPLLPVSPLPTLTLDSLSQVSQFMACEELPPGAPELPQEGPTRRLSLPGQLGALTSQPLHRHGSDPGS

For `C[C@@H]1c2nnn(-c3ncccn3)c2CCN1C(=O)c1cccc(C(F)(F)F)c1Cl`, the Activity (Rattus norvegicus [1]) was “Toxic”, the fraction unbound at 6 h, 1 µM [2] was 0.076 and the IC50 (Cytochrome P450 2C19 [3]) was > 10 µM. The IC50 (Cytochrome P450 2C9 [4]) was > 10 µM, the IC50 (Cytochrome P450 2D6) was > 10 µM and the Vd [5] was 1.5 L/kg. For the same compound, the Activity (Rattus norvegicus [6]) was “Toxic”, the IC50 (Cytochrome P450 1A2) was > 10 µM and the Cp (Rattus norvegicus [7]) was 27 ng/mL. For the same compound, the bioavailability [8] was 61%, the IC50 (Cytochrome P450 3A4) was > 10 µM and the clearance [9] was 3.96 L/h/kg. The Activity (Rattus norvegicus [10]) was “Toxic”, the solubility at 72 h [11] was > 400 µM and the half-life [12] was 660 min. For the same compound, the Kp [13] was 0.8, the Vd [14] was 0.9 L/kg and the Drug metabolism (Rattus norvegicus [15]) was “Metabolite_Detected”. For the same compound, the clearance [16] was 1.14 L/h/kg, the Vd [17] was 1.1 L/kg and the Activity (Rattus norvegicus [18]) was “Toxic”. For the same compound, the concentration (Plasma) was 175 µM, the IC50 (Cytochrome P450 2C8) was > 10 µM and the Occ (Rattus norvegicus [19]) was “Dose-dependent effect”. For the same compound, the ED50 (Rattus norvegicus [19]; 1 h) was 0.9 mg/kg, the bioavailability [20] was 92% and the Drug metabolism (Cytochrome P450 2C19 [21]) was “Metabolite_Detected”. The Vd [22] was 1.3 L/kg, the fraction unbound at 6 h, 1 µM [23] was 0.074 and the half-life [24] was 30 min. The IC50 [25] was > 10 µM, the fraction unbound at 6 h, 1 µM [26] was 0.084 and the clearance [27] was 1.92 L/h/kg. It also gave a bioavailability [28] of 70%, a half-life [29] of 48 min and a half-life [30] of 24 min. For the same compound, the solubility at 72 h [31] was 180 µM (≈ 76.1 µg/mL), the dose excreted [32] was 0.4% and the bioavailability [33] was 5%. For the same compound, the Activity (Rattus norvegicus [34]) was “Toxic”, the clearance [35] was 0.084 L/h/kg and the Drug metabolism (Cytochrome P450 2C9 [36]) was “Metabolite_Detected”.
